In patent US20260373266A1, “PROTEIN DEGRADERS AND USES THEREOF” (KYMERA THERAPEUTICS, INC., priority 2022, published 2026):

What follows are molecules tested against T1, DCAF1 WD40 domain (residues 1077-1390) (Homo sapiens, UniProt Q9Y4B6) (assay: DCAF1 binding assay by SPR (Biacore 8K+), DCAF1-3 KD). Conditions: 25 °C, read-out: DCAF1-3 SPR (KD).
T1 construct: DCAF1 WD40 domain (residues 1077-1390)
T1 sequence (Q9Y4B6 1077-1390): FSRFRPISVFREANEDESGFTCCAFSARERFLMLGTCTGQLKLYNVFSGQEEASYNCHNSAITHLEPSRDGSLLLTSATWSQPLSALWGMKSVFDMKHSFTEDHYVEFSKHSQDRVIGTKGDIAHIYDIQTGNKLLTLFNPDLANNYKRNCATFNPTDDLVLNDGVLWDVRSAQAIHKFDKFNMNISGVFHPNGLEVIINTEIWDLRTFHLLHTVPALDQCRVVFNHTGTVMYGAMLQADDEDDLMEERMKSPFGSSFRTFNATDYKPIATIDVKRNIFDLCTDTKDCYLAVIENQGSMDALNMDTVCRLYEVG

| Structure (SMILES) | Kd |
| --- | --- |
| NC(=O)C[C@H](NC(=O)c1c[nH]nc1-c1cccc2ccnn12)c1cccc(Cl)c1 [I-236] | > 200 µM |
| NC(=O)C[C@H](NC(=O)c1c[nH]nc1-c1cccc2ncnn12)c1cccc(Cl)c1 [I-237] | > 200 µM |
| NC(=O)C[C@H](NC(=O)c1c[nH]nc1-c1cc(=O)[nH]cn1)c1cccc(Cl)c1 [I-238] | > 200 µM |
| NC(=O)C[C@H](NC(=O)c1c[nH]nc1-c1cccc2nc[nH]c12)c1cccc(Cl)c1 [I-239] | > 200 µM |
| NC(=O)C[C@H](NC(=O)c1c[nH]nc1-c1ccc2[nH]cnc2c1)c1cccc(Cl)c1 [I-240] | > 200 µM |
| NC(=O)C[C@@]1(NC(=O)c2c[nH]nc2-c2ccccc2F)CCCc2cc(Cl)ccc21 [I-241] | > 200 µM |
| NC(=O)C[C@@]1(NC(=O)c2c[nH]nc2-c2ccccc2F)CCc2cc(Cl)ccc21 [I-242] | > 200 µM |
| NC(=O)C[C@@]1(NC(=O)c2c[nH]nc2-c2ccccc2F)CCCc2ccc(Cl)cc21 [I-243] | > 200 µM |
| Fc1cccc(N2CC[C@@H]3CCCc4ncc(N5CCOCC5)cc4N[C@H]3C2)c1 [I-245] | > 200 µM |
| CS(=O)(=O)Cc1ccc(F)c(-c2[nH]ncc2C(=O)N[C@@H](CC(N)=O)c2cccc(Cl)c2)c1 [I-246] | > 200 µM |
| CS(=O)(=O)CCc1ccc(F)c(-c2[nH]ncc2C(=O)N[C@@H](CC(N)=O)c2cccc(Cl)c2)c1 [I-247] | > 200 µM |
| COCc1ccc(F)c(-c2[nH]ncc2C(=O)N[C@@H](CC(N)=O)c2cccc(Cl)c2)c1 [I-248] | 10 to 100 µM |
| COc1ccc(F)c(-c2[nH]ncc2C(=O)N[C@@H](CC(N)=O)c2cccc(Cl)c2)c1 [I-249] | > 200 µM |
| COCCc1ccc(F)c(-c2[nH]ncc2C(=O)N[C@@H](CC(N)=O)c2cccc(Cl)c2)c1 [I-250] | 10 to 100 µM |
| NC(=O)C[C@H](NC(=O)c1cn[nH]c1-c1cc(CC(F)F)ccc1F)c1cccc(Cl)c1 [I-251] | > 200 µM |
| NC(=O)C[C@H](NS(=O)(=O)c1c[nH]nc1-c1ccccc1F)c1cccc(Cl)c1 [I-252] | > 200 µM |
| NC(=O)C[C@](CO)(NC(=O)c1c[nH]nc1-c1ccccc1F)c1cccc(Cl)c1 [I-253] | > 200 µM |
| NC(=O)C[C@](NC(=O)c1c[nH]nc1-c1ccccc1F)(c1cccc(Cl)c1)C1CC1 [I-254] | > 200 µM |
| NC(=O)C[C@](CC1CC1)(NC(=O)c1c[nH]nc1-c1ccccc1F)c1cccc(Cl)c1 [I-255] | > 200 µM |
| NC(=O)C[C@@](NC(=O)c1c[nH]nc1-c1ccccc1F)(c1ccccc1)c1cccc(Cl)c1 [I-256] | > 200 µM |
| Fc1cccc(N2CCC[C@@H](N(CC(F)F)c3cc(N4CCOCC4)ccn3)C2)c1 [I-257] | > 200 µM |
| CS(=O)(=O)CN(c1cc(N2CCOCC2)ccn1)[C@@H]1CCCN(c2cccc(F)c2)C1 [I-258] | > 200 µM |

| Structure (SMILES) | Kd |
| --- | --- |
| Fc1cccc(N2CCCC(C3(c4cc(N5CCOCC5)ccn4)CC3)C2)c1 (centres unmarked) [I-259] | > 200 µM |
| Fc1cccc(N2CCC[C@@H](Nc3cc(N4CCOCC4)ccn3)C2F)c1 (some centres unmarked) [I-260] | > 200 µM |
| Fc1cccc(N2CCCC(C3(c4cc(N5CCOCC5)ccn4)CC3(F)F)C2)c1 (centres unmarked) [I-261] | > 200 µM |
| COC(C)(c1cc(N2CCOCC2)ccn1)C1CCCN(c2cccc(F)c2)C1 (centres unmarked) [I-262] | > 200 µM |
| CC(c1cc(N2CCOCC2)ccn1)(C1CCCN(c2cccc(F)c2)C1)C(F)(F)F (centres unmarked) [I-263] | > 200 µM |
| O=S(=O)(c1cc(N2CCOCC2)ccn1)C1CCCN(c2cccc(F)c2)C1 (centres unmarked) [I-264] | > 200 µM |
| COC[C@@](CC(N)=O)(NC(=O)c1c[nH]nc1-c1ccccc1F)c1cccc(Cl)c1 [I-265] | > 200 µM |
| CC(F)(c1cc(N2CCOCC2)ccn1)C1CCCN(c2cccc(F)c2)C1 (centres unmarked) [I-266] | > 200 µM |
| NC(=O)C[C@H](NC(=O)c1c[nH]nc1-c1cc(F)ccc1F)c1cccc(Cl)c1 [I-267] | > 200 µM |
| Cn1nnnc1-c1ccc(F)c(-c2n[nH]cc2C(=O)N[C@@H](CC(N)=O)c2cccc(Cl)c2)c1 [I-268] | > 200 µM |
| NC(=O)C[C@H](NC(=O)c1c[nH]nc1-c1cc(C(=O)O)ccc1F)c1cccc(Cl)c1 [I-269] | > 200 µM |
| COC(=O)c1ccc(F)c(-c2n[nH]cc2C(=O)N[C@@H](CC(N)=O)c2cccc(Cl)c2)c1 [I-270] | > 200 µM |
| CC(=O)N(c1cc(N2CCOCC2)ccn1)[C@@H]1CCCN(c2cccc(F)c2)C1 [I-271] | > 200 µM |
| NC(=O)CN(c1cc(N2CCOCC2)ccn1)[C@@H]1CCCN(c2cccc(F)c2)C1 [I-272] | > 200 µM |
| Fc1cccc(N2CCC[C@@H](N(c3ccccc3)c3cc(N4CCOCC4)ccn3)C2)c1 [I-273] | > 200 µM |
| O[C@@H]1C[C@@H](Nc2cc(N3CCOCC3)ccn2)CN(c2cccc(F)c2)C1 [I-274] | 10 to 100 µM |
| Fc1cccc(N2C[C@H](F)C[C@@H](Nc3cc(N4CCOCC4)ccn3)C2)c1 [I-275] | > 200 µM |
| OC[C@@]1(Nc2cc(N3CCOCC3)ccn2)CCCN(c2cccc(F)c2)C1 [I-276] | > 200 µM |
| FC[C@@]1(Nc2cc(N3CCOCC3)ccn2)CCCN(c2cccc(F)c2)C1 [I-277] | > 200 µM |
| NC(=O)[C@@H]1[C@H](Nc2cc(N3CCOCC3)ccn2)CCCN1c1cccc(F)c1 [I-278] | > 200 µM |
| OC[C@@H]1[C@H](Nc2cc(N3CCOCC3)ccn2)CCCN1c1cccc(F)c1 [I-279] | > 200 µM |
| Fc1cccc(N2CCC[C@@H](Nc3cc(N4CCOCC4)ccn3)C23COC3)c1 [I-280] | > 200 µM |

| Structure (SMILES) | Kd |
| --- | --- |
| O=C1[C@H](Nc2cc(N3CCOCC3)ccn2)CCCN1c1cccc(F)c1 [I-281] | > 200 µM |
| O=S1(=O)[C@H](Nc2cc(N3CCOCC3)ccn2)CCCN1c1cccc(F)c1 [I-282] | > 200 µM |
| NS(=O)(=O)[C@@H]1[C@H](Nc2cc(N3CCOCC3)ccn2)CCCN1c1cccc(F)c1 [I-283] | > 200 µM |
| NC(=O)C[C@H](NC(=O)c1cn[nH]c1-c1cc(CCC(=O)O)ccc1F)c1cccc(Cl)c1 [I-284] | 10 to 100 µM |
| NC(=O)C[C@H](NC(=O)c1cn[nH]c1-c1cc(CC(=O)O)ccc1F)c1cccc(Cl)c1 [I-285] | 100 to 200 µM |
| O=C(O)CN(c1cc(N2CCOCC2)ccn1)[C@@H]1CCCN(c2cccc(F)c2)C1 [I-286] | > 200 µM |
| O=C(O)[C@@H]1[C@H](Nc2cc(N3CCOCC3)ccn2)CCCN1c1cccc(F)c1 [I-287] | > 200 µM |
| O=C(O)CCN(c1cc(N2CCOCC2)ccn1)[C@@H]1CCCN(c2cccc(F)c2)C1 [I-288] | > 200 µM |
| N#CCCN(c1cc(N2CCOCC2)ccn1)[C@@H]1CCCN(c2cccc(F)c2)C1 [I-289] | > 200 µM |
| Fc1cccc(N2CCC[C@@H](N(CCC(F)F)c3cc(N4CCOCC4)ccn3)C2)c1 [I-290] | > 200 µM |
| NC(=O)CCN(c1cc(N2CCOCC2)ccn1)[C@@H]1CCCN(c2cccc(F)c2)C1 [I-291] | > 200 µM |
| CS(=O)(=O)CCN(c1cc(N2CCOCC2)ccn1)[C@@H]1CCCN(c2cccc(F)c2)C1 [I-292] | > 200 µM |
| NC(=O)C[C@H](NC(=O)c1c[nH]nc1-c1cc(-c2nnn[nH]2)ccc1F)c1cccc(Cl)c1 [I-293] | > 200 µM |
| NC(=O)C[C@@](NC(=O)c1c[nH]nc1-c1ccccc1F)(C(=O)O)c1cccc(Cl)c1 [I-294] | > 200 µM |
| NC(=O)C[C@](CC(=O)O)(NC(=O)c1c[nH]nc1-c1ccccc1F)c1cccc(Cl)c1 [I-295] | > 200 µM |
| Fc1cccc(N2CCCC(Nc3cc(N4CCOCC4)ccn3)C23CC(F)(F)C3)c1 (centres unmarked) [I-296] | > 200 µM |
| NC(=O)C[C@H](NC(=O)c1n[nH]c2ccccc12)c1cccc(Cl)c1 [I-297] | > 200 µM |
| NC(=O)C[C@H](NC(=O)c1n[nH]c2c1CNCC2)c1cccc(Cl)c1 [I-298] | > 200 µM |
| NC(=O)C[C@H](NC(=O)c1n[nH]c2c1NCCC2)c1cccc(Cl)c1 [I-299] | > 200 µM |
| C=CC(=O)N1CCc2[nH]nc(C(=O)N[C@@H](CC(N)=O)c3cccc(Cl)c3)c2C1 [I-300] | > 200 µM |
| C=CC(=O)Nc1ccc2c(C(=O)N[C@@H](CC(N)=O)c3cccc(Cl)c3)n[nH]c2c1 [I-301] | > 200 µM |
| C=CC(=O)Nc1ccc2[nH]nc(C(=O)N[C@@H](CC(N)=O)c3cccc(Cl)c3)c2c1 [I-302] | > 200 µM |

| Structure (SMILES) | Kd |
| --- | --- |
| O=c1cc(N2CCOCC2)cc(N[C@@H]2CCCN(c3cccc(F)c3)C2)[nH]1 [I-303] | > 200 µM |
| CS(=O)(=O)N(c1cc(N2CCOCC2)ccn1)[C@@H]1CCCN(c2cccc(F)c2)C1 [I-304] | > 200 µM |
| Fc1cccc(N2CCCC(N(c3cc(N4CCOCC4)ccn3)C(F)(F)F)C2)c1 (centres unmarked) [I-305] | > 200 µM |
| Fc1cccc(N2CCC[C@@H](N(c3cccnc3)c3cc(N4CCOCC4)ccn3)C2)c1 [I-306] | > 200 µM |
| Fc1cccc(N2CCC[C@@H](N(c3ccncc3)c3cc(N4CCOCC4)ccn3)C2)c1 [I-307] | > 200 µM |
| C=CC(=O)Nc1n[nH]cc1C(=O)N[C@@H](CC(N)=O)c1cccc(Cl)c1 [I-308] | > 200 µM |
| Fc1cccc(N2CCC[C@@H](Nc3cc(N4C[C@H]5CCC4CO5)ncn3)C2)c1 [I-309] | > 200 µM |
| Fc1cccc(N2CCC[C@@H](Nc3cc(N4C[C@H]5C[C@@H]4CO5)ncn3)C2)c1 [I-310] | > 200 µM |
| Fc1cccc(N2CCC[C@@H](Nc3cc(N4C[C@H]5C[C@@H](C4)O5)ncn3)C2)c1 [I-311] | > 200 µM |
| Fc1cccc(N2CCC[C@@H](Nc3cc(N4C[C@@H]5C[C@H]4CO5)ncn3)C2)c1 [I-312] | > 200 µM |
| Fc1cccc(N2CCC[C@H](Nc3cc(N4CCOCC4)ncn3)C2)c1 [I-313] | > 200 µM |
| Fc1cccc(N2CCC[C@@H](Nc3nccc(N4CCNCC4)n3)C2)c1 [I-314] | > 200 µM |
| CN1CCN(c2ccnc(N[C@@H]3CCCN(c4cccc(F)c4)C3)n2)CC1 [I-315] | > 200 µM |
| CCN1CCN(c2ccnc(N[C@@H]3CCCN(c4cccc(F)c4)C3)n2)CC1 [I-316] | > 200 µM |
| CCCN1CCN(c2ccnc(N[C@@H]3CCCN(c4cccc(F)c4)C3)n2)CC1 [I-317] | > 200 µM |
| CCCCN1CCN(c2ccnc(N[C@@H]3CCCN(c4cccc(F)c4)C3)c2)CC1 [I-318] | > 200 µM |
| Fc1cccc(N2CCC[C@@H](Nc3nccc(N4CCCCC4)n3)C2)c1 [I-319] | 100 to 200 µM |
| COCCN1CCN(c2ccnc(N[C@@H]3CCCN(c4cccc(F)c4)C3)n2)CC1 [I-320] | 10 to 100 µM |
| Fc1cccc(N2CCC[C@@H](Nc3ccnc(N4CCOCC4)n3)C2)c1 [I-321] | > 200 µM |
| Fc1cccc(N2CCC[C@@H](N(CCc3ccccc3)c3nccc(N4CCOCC4)n3)C2)c1 [I-323] | > 200 µM |
